Measurements published in patent publication US20230255943A1, “MMP-9 AND MMP-12 INHIBITION FOR TREATING SPINAL CORD INJURY OR RELATED INJURY TO NEUROLOGICAL TISSUE” (The University of Birmingham, priority 2020, published 2023).

Columns and labels:
[1] = tested on: rats with DC crush injury; experiment: Spinal cord water content after DC injury in rats; format: in vivo; settings: rat DC injury, oral, 3 days
Procedure: DC crush injury was administered bilaterally at the T8 vertebral level as described previously (S. Surey, M. Berry, A. Logan, R. Bicknell, Z. Ahmed, Differential cavitation, angiogenesis and wound-healing responses in injured mouse and rat spinal cords. Neuroscience 275, 62-80 (2014); M. L. Read, S. Mir, R. Spice, R. J. Seabright, E. L. Suggate, Z. Ahmed, M. Berry, A. Logan, Profiling RNA interference (RNAi)-mediated toxicity in neural cultures for effective short interfering RNA design. J Gene Med 11, 523-534 (2009)). […]
The efficacy of oral AZD3342 in the DC injury model in adult Sprague-Dawley rat was also assessed. […]
The lesion site+3 mm either side for mice and the lesion site+5 mm either side for the rat DC model were dissected out and the water content of the spinal cord (as a measure of oedema) was determined at 3 days after DC and CC SCI, as described previously (S. Li, C. H. Tator, Effects of MK801 on evoked potentials, spinal cord blood flow and cord edema in acute spinal cord injury in rats. Spinal Cord 37, 820-832 (1999)). […] The percent water content was calculated as: water content (%)=[(wet weight-dry weight)/wet weight]×100%.

IL-1β, TNF-α and IL-6 = experiment: Proinflammatory pain cytokines after DC injury in rats; format: in vivo; settings: rat DC injury, oral
Procedure: The efficacy of oral AZD3342 in the DC injury model in adult Sprague-Dawley rat was also assessed. Animals were divided into 6 groups: (1), Sham (control); (2), DC crush injury+Vehicle; (3), DC crush injury+15 mg/kg AZD3342; (4), DC crush injury+75 mg/kg […]; (5), DC crush injury+375 mg/kg AZD3342; and (6), DC crush injury+Melatonin. Animals were dosed twice daily with oral AZD3342 or vehicle with the experimenters masked to the treatment conditions. These experiments were performed with n=6 rats/group and repeated on 2-3 independent occasions (total n=12-18 rats/group/test).
The lesion site+5 mm either side (DC and CC SCI, n=6 mice/rats/group, 2 independent repeats (total n=12 mice/rats/group)) was dissected and rapidly frozen in liquid N2 and stored at −80° C. until required. […] The levels of mRNA of MMP-9, MMP-12, IL-1β, TNF-α and IL-6 were determined using pre-validated mouse primer sequences from complimentary DNA prepared from extracted mRNA and qRT-PCR was performed using a LightCycler PCR machine (Roche, Burgess Hill, UK) (M. L. Read, S. Mir, R. Spice, R. J. Seabright, E. L. Suggate, Z. Ahmed, M. Berry, A. Logan, Profiling RNA interference (RNAi)-mediated toxicity in neural cultures for effective short interfering RNA design. J Gene Med 11, 523-534 (2009)). […]

[2] = tested on: mice with DC crush injury; experiment: BSCB integrity by albumin immunoreactivity; format: in vivo, mouse; settings: oral
Source text: After killing animals by exposure to rising concentrations of CO2, mice were intracardially perfused with 4% formaldehyde (TAAB Laboratories, Berkshire, UK) in 0.1M phosphate buffered saline (PBS). The lesion site+5 mm either side were dissected out, post-fixed in 4% formaldehyde and subjected to a graded series of sucrose solutions for cryoprotection. Spinal cords were blocked in OCT mounting compound (TAAB laboratories), sectioned longitudinally at 15 μm-thick using a cryostat (Brights Instruments, Huntingdon, UK) before being collected on charged glass slides (ThermoFisher Scientific, Loughborough, UK) and kept at −20° C. until required. Slides were numbered consecutively and sections from the middle of the lesion site were chosen for all immunohistochemical analyses, as described by previously (Surey S, Berry M, Logan A, Bicknell R, Ahmed Z. Differential cavitation, angiogenesis and wound-healing responses in injured mouse and rat spinal cords. Neuroscience 2014; 275: 62-80).
The integrity of the BSCB was assessed using albumin immunoreactivity in the spinal cord at 3 days after injury, as a surrogate marker of BSCB disruption. Sections were thawed at room temperature and washed in PBS before blocking endogenous […] in H2O2. […]

## C[C@]1(CS(=O)(=O)N2CCC(Oc3ccc(Cl)cn3)CC2)NC(=O)NC1=O [AZD3342, (5S)-5-[4-(5-chloro-pyridin-2-yloxy)-piperidine-1-sulfonylmethyl]-5-methylimidazolidine-2,4-dione]
[1]
  SCI-induced edema (spinal cord water content): suppressed
IL-1β, TNF-α and IL-6
  expression of proinflammatory pain cytokines: significantly suppressed

## C[C@]1(CS(=O)(=O)N2CC=C(C#Cc3cnc(C4CC4)nc3)CC2)NC(=O)NC1=O [AZD1236]
[2]; 24 h delayed treatment
  suppression of area of BSCB breakdown (albumin immunoreactivity): > 73%
[2]; immediately after injury, 3 days, vs DC+vehicle
  suppression of area of BSCB breakdown (albumin immunoreactivity): > 75%
